According to publication PMC9241695, “Selective Metal Chelation by a Thiosemicarbazone Derivative Interferes with Mitochondrial Respiration and Ribosome Biogenesis in Candida albicans” (Microbiology Spectrum, 2022):
Read-outs that look alike come from different tables or passages of the source.

Assays:
C. albicans SC5314 [1] = test: MIC of 19ak in the presence of H2O2; format: cell-based; conditions: Candida albicans, read-out: MIC against C. albicans SC5314 (Table S3)
Procedure: Influence of oxidant or antioxidant molecules on 19ak activity. The MIC of
19ak in the presence of 1–2 mM H2O2 was measured using the broth microdilution
assay as described above. […]

C. albicans SC5314 cells = test: Mitochondrial membrane potential by Rh123; format: cell-based, Candida albicans; conditions: 0.125-1 μg/mL, 30°C, 6 h
Procedure: the fluorescent complex […] (CTF) is commonly used to indicate the intensity of microbial respiration. C. albicans SC5314 treated with 19ak was stained with 1 mM CTC for 30 min, followed by flow cytometry analysis of respiratory activity based on fluorescence intensity. Images of cells were obtained using a fluorescence microscope (IX71, Olympus, Tokyo, Japan). The Cell Counting Kit-8 (CCK-8) assay is used to measure the dehydrogenase activity in the mitochondria of C. albicans or mammalian cells. C. albicans SC5314 (5 × 10^6 cells/mL in RPMI1640 medium) were treated with different concentrations of 19ak in 96-well plates at 30°C for 12 h or 48 h. […] After an additional 2 h of incubation, OD450 in each well was detected with a microplate reader. […]
Mitochondrial isolation and detection of mitochondrial respiratory chain complex activity. […] The activities of mitochondrial respiratory chain complexes I-IV were determined by using the Micro Mitochondrial Respiratory Chain Complex Activity Assay Kit (Solarbio, Beijing, China). The concentration of protein was determined using the BCA Protein Assay Kit (Beyotime, Haimen, China).
Mitochondrial complex activity was expressed as nmol/min/mg protein. […]
Measurement of intracellular ATP production. […] Cellular protein concentrations were determined using a BCA Protein Assay Kit (Beyotime, Haimen, China). […]

16HBE = test: Intracellular ferrous and zinc contents in mammalian cells (FeRhoNox-1, Zinbo-5); format: cell-based, human; conditions: 5 μg/mL, 12 h
Procedure: (§1) FeRhoNox-1 is a commercially available fluorescent probe that specifically binds Fe^2+ and is used to measure intracellular Fe^2 + content. C. albicans SC5314 cells cultured overnight were diluted to roughly 1 × 10^6 cells/mL in RPMI 1640 medium and challenged with various doses of 19ak for 6 h. Next, the cells were fixed with 4% paraformaldehyde for 1 h. After washing three times with PBS, the cells were stained with 5 μM FeRhoNox-1 for 30 min and analyzed by flow cytometry (Becton, Dickinson, CA, USA). Mammalian cells culture is according to the method described in Cytotoxicity testing which was described in Supplemental material in detail. After 12 h of treatment with different concentrations of 19ak, the supernatant was discarded and washed three times with PBS. Cells were collected after staining with FeRhoNox-1 for 30 min in the dark, and the fluorescence intensity of stained cells was analyzed by flow cytometry.
(§2) C. albicans SC5314 cells grown overnight were pelleted, washed three times with PBS buffer, and resuspended to obtain an OD600 of 2.0. Next, the cells were incubated with various concentrations of 19ak in 96-well plates at 30°C for 6 h, followed by incubation with 10 μM Zinbo-5 for 30 min. Finally, fluorescence was measured in a microplate reader (excitation at 355 nm, emission at 485 nm). […]

HepG2 = test: as above; format: cell-based, human; conditions: 5 μg/mL, 12 h
Procedure: as §1, §2

G. mellonella = test: Toxicity of 19ak in G. mellonella larvae; format: in vivo, Galleria mellonella; conditions: 10 μg per larva, 4 days
Procedure: Larvae of normal size and in good condition were injected with 10 μL of 19ak (1 mg/mL) or PBS. The survival of the larvae was monitored daily for 4 days.

C. albicans SC5314 [2] = test: Time-growth curve with antioxidants; format: cell-based, Candida albicans; conditions: SC medium, 5 mM NAC or 5 mM Tu, 0.25 or 0.5 μg/mL 19ak, 15 h
Procedure: albicans SC5314 cells (1 × 10^6 cells/mL) were challenged with various doses of 19ak and incubated at 30°C for 6 h, followed by staining with 20 μM Rh123 for 30 min in the dark and detection by flow cytometry (Becton Dickinson, CA, USA).
Measurement of intracellular ATP production. To explore whether 19ak affects intracellular ATP content by damaging mitochondria, we treated C. albicans SC5314 cells (1 × 10^6 cells/mL) with different doses of 19ak. After lysing the cells in lysis buffer, ATP levels were measured with the ATP Assay Kit (Beyotime, Haimen, China) according to the manufacturer's instructions. Cellular protein concentrations were determined using a BCA Protein Assay Kit (Beyotime, Haimen, China). The intracellular ATP content was calculated by referring to a standard curve and normalized using the protein content of each sample for expression as nmol/mg […]
ROS production assay. […] The fluorescence intensity was then measured by flow cytometry, and the data were analyzed with Win MDI 2.9 software.
Influence of oxidant or antioxidant molecules on 19ak activity. […] The effects of NAC, Tu and DTT on the growth of 19ak treated fungal cells were measured using a time-growth curve. […] A microplate reader was used to measure the absorbance at600 nm, and the growth curves were plotted.

C/C(=N\NC(=S)N(C)C)c1ccccn1 [Compound 19ak]
MIC (C. albicans SC5314 [1]; SC5314, +1 mM H2O2): 0.25 µg/mL | MIC (C. albicans SC5314 [1]; SC5314, +2 mM H2O2): 0.5 µg/mL | MIC (C. albicans SC5314 [1]; SC5314, without H2O2): 0.125 µg/mL | Mitochondrial membrane potential (mtΔψ), Rh123 (C. albicans SC5314 cells): decrease in mtΔψ | Ferrous and zinc contents in 16HBE cells (16HBE): almost had no effects | Ferrous and zinc contents in HepG2 cells (HepG2): almost had no effects | Survival of uninfected larvae (toxicity) (G. mellonella): all treated larvae were still alive | Effect of antioxidants NAC and Tu on antifungal activity (cell growth monitoring) (C. albicans SC5314 [2]): greatly enhanced the antifungal activity
